# From ChEMBL document CHEMBL4392860, “Characterization of the substrate scope of an alcohol dehydrogenase commonly used as methanol dehydrogenase” (Bioorg Med Chem Lett, 2019)
# What was measured:
# Conditions in all cases: DSM 2334
# [1] = tested on: Geobacillus stearothermophilus
# Description: Substrate activity at Geobacillus stearothermophilus DSM 2334 ADH expressed in Escherichia coli BL21 (DE3) assessed as Kcat in 50 mM HEPES buffer at pH 7.5 at 23 degC by MTT dye based Lineweaver-Burk plot analysis
# [2] = tested on: Geobacillus stearothermophilus; remark: listed apart in the source
# Description: Substrate activity at Geobacillus stearothermophilus DSM 2334 ADH expressed in Escherichia coli BL21 (DE3) assessed as Km in 50 mM HEPES buffer at pH 7.5 at 23 degC by MTT dye based Lineweaver-Burk plot analysis
# [3] = tested on: Geobacillus stearothermophilus; remark: listed apart in the source
# Description: Substrate activity at Geobacillus stearothermophilus DSM 2334 ADH expressed in Escherichia coli BL21 (DE3) assessed as Kcat/Km ratio in 50 mM HEPES buffer at pH 7.5 at 23 degC by MTT dye based Lineweaver-Burk plot analysis
SMILES,kcat [1],Km [2],kcat/Km [3]
CCCCO,0.004 s⁻¹,2.45 mM,1.67 M⁻¹ s⁻¹
CC(C)(C)O,0.026 s⁻¹,–,0.046 M⁻¹ s⁻¹
CC(C)O,0.076 s⁻¹,1.26 mM,60.3 M⁻¹ s⁻¹
CCO,0.019 s⁻¹,2.95 mM,6.26 M⁻¹ s⁻¹
CO,0.013 s⁻¹,–,0.044 M⁻¹ s⁻¹
CCC(C)O (configuration not stated),0.094 s⁻¹,23.8 mM,3.96 M⁻¹ s⁻¹
CCCO,0.019 s⁻¹,39.8 mM,0.46 M⁻¹ s⁻¹
OCCCO,0.041 s⁻¹,23.6 mM,1.71 M⁻¹ s⁻¹
